Data reported in US20240423977A1, “FIVE-MEMBERED RING-FUSED SIX-MEMBERED RING COMPOUND, PREPARATION METHOD THEREFOR, AND PHARMACEUTICAL COMPOSITION AND USE THEREOF” (HANGZHOU POLYMED BIOPHARMACEUTICALS, INC., priority 2022, published 2024).

What was measured:
kinase IRAK4 = kinase IRAK4 (Homo sapiens (Human), UniProt Q9NWZ3); experiment: Inhibitory effects of compounds on kinase activity (fluorescence microfluidic mobility detection, competitive with ATP); assay type: biochemical; conditions: IRAK4 6 nM, ATP 10 μM
Chain of kinase IRAK4 (Q9NWZ3 whole entry): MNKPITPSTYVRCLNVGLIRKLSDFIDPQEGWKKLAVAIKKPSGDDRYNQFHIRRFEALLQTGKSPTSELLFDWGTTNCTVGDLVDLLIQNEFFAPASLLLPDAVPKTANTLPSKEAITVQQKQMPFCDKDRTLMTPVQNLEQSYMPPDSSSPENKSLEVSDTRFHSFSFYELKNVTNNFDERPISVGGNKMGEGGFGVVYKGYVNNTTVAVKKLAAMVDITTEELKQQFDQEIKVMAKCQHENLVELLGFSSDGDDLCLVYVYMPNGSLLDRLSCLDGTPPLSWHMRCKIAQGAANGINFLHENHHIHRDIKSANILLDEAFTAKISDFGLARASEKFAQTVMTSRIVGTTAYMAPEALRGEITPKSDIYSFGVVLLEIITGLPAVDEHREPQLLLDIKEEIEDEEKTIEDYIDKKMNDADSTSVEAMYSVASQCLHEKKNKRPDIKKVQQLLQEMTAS
Protocol: Based on an experimental method of fluorescence microfluidic mobility detection, an IC50 value of competitive binding of kinase IRAK4 to ATP by the compounds was determined. The initial detection concentration of the compounds was 10 μM, diluted 4-fold gradient down to […], and tested in duplicate. Among them, commercial staurosporine was the standard control substance in this experiment.
1) IRAK4 kinase was dissolved in kinase buffer (50 mM HEPES pH 7.5, 10 mM MgCl2, 2 mM DTT and 0.01% Brij-35) to a final concentration of 6 nM.
2) The substrate peptide FAM-P8 and ATP were dissolved in the above kinase buffer. The final concentrations of the IRAK4 substrate peptide FAM-P8 and ATP were 3 μM and 10 μM respectively.
3) Dilution of the compounds: the compound was first diluted to 50 μM, and then diluted down with a 4-fold gradient of DMSO. The solution without the compound and kinase is used as a blank control, corresponding to the “minimum value” shown below; and the solution without the compound but with kinase, adenosine 5′-triphosphate disodium salt hydrate, DMSO and buffer is used as a positive control, corresponding to the “maximum value” shown below. 4) Kinase reaction and termination: 10 μL of kinase buffer was added to a 384-well plate containing 5 μL of the compound to be tested, and incubated at room temperature for 10 minutes. Another 10 μL of buffer containing the substrate peptide and adenosine 5′-triphosphate disodium salt hydrate was added to the 384-well plate. After incubation at 28° C. for one hour, 25 μL stop solution (100 mM HEPES pH 7.5, 50 mM EDTA, 0.2% Coating Reagent #3 and 0.015% Brij-35) was added to each well to terminate the reaction.
5) Data reading: the CaliperEZ Reader II instrument was used to read the conversion rate data. Conditions: downstream voltage −500V, upstream voltage −2250V, base pressure −0.5 PSI, and screening pressure −1.2 PSI.
6) Data calculation: the conversion rate data was copied from CaliperEZ Reader II and converted into inhibition rate data. The calculation formula is as follows:
[formula] • IC50 values were fitted using XLFit excel add-in version 5.4.0.8,
Y=Bottom+(Top−Bottom)/(1+(IC50/X)^HillSlope) Fitting formula: […]

[1] = target: IRAK4 protein in THP-1 cells (Homo sapiens (Human), UniProt Q9NWZ3); experiment: PROTAC-induced IRAK4 protein degradation in THP-1 cells (Western Blot); assay type: cell-based; conditions: for DC50: concentration that degraded 50% of IRAK4, Western blotting, 24 hours after administration; for IRAK4 degradation rate 24 hours after administration of the compounds with a concentration of 1 μM: Western blotting
Chain of IRAK4 protein in THP-1 cells (Q9NWZ3 whole entry): as above
Protocol: 2.1 Based on the experimental method of Western Blot, specific antibodies were used to stain the THP-1 cell samples treated by gel electrophoresis, and the degrading activity of the compounds on the IRAK4 protein in THP-1 cells was determined by analyzing the position and depth of staining. The concentrations of compound for the detection included 0 μM, 0.3 μM, 1 μM and 3 μM, and the cells were treated by the compound for 8 hours, 16 hours, 24 hours, and 48 hours. Glyceraldehyde-3-phosphate dehydrogenase (GAPDH) is an internal reference protein in this experiment.
Electrophoresis buffer: 50 mL MOPS SDS Running Buffer (20×) and 50 mL 20×TBS Tween-20 buffer were diluted with deionized water to 1 L as the electrophoresis buffer;
5% skim milk (w/v): 2.5 g skim milk was diluted with 50 mL 1×TBS Tween-20 buffer to prepare 5% skim milk;
5% BSA (w/v): 2.5 g BSA was diluted with 50 mL 1×TBS Tween-20 buffer to prepare 5% BSA;
Anti-IRAK4 antibody was diluted with 5% BSA at 1:1000 into a primary antibody working solution;
Goat Anti-Rabbit IgG H&L (HRP) was diluted with 5% BSA at 1:2000 into a second antibody working solution; and
Goat Anti-Mouse IgG H&L (HRP) was diluted with 5% BSA at 1:2000 into a second antibody working solution.
THP-1 cells were plated in a 6-well plate at a density of 1.5×10^6 cells per ml and incubated for 2 hours in a cell culture incubator under 37° C. and 5% CO2. The compound was diluted with DMSO to 0.6 mM, 0.2 mM and 0.06 mM respectively. 10 μL of compound solution was added to the corresponding wells, and continued to incubate in the incubator for 16 hours, 24 hours and 48 hours respectively. The compound-treated THP-1 cells in the well were collected, added with 120 μL of RIPA lysate containing protease inhibitor, Phosphatase Inhibitor Cocktail 2 and Phosphatase Inhibitor Cocktail 3, lysed on wet ice for 30 minutes, and then the cells lysate was centrifuged at a high speed and a low temperature for 5 minutes to collect the supernatant. The protein concentration of the cell sample was determined according to the instructions in the Pierce™ BCA Protein Assay Kit.
The concentration of the sample was adjusted to be consistent using lysis buffer and NuPAGE® LDS sample buffer containing 1M DTT. The samples were heated at 95° C. for 5 minutes and centrifuged at a low temperature and at a high speed. 20 μL of the prepared protein sample and 4 μL of PageRuler Prestained Protein Ladder were added into the gel well for running at 80V voltage for 0.5 hours, then the voltage was adjusted to 120V for further running for 1.5 hours. The gel was removed and the proteins in the gel were transferred to the IBlotTM 2 transfer membrane set at 20V. After successful transfer, bands at 65 kDa-40 kDa and 40 kDa-30 kDa were cut respectively. The membranes were blocked with 5% skim milk for 1 hour at room temperature. The membranes were washed three times with 1× concentration of TBST, then incubated with IRAK4 antibody working solution overnight at 4° C. The IRAK4 antibody working solution was discarded, and the membranes were washed three times with 1×concentration of TBST, and incubated with Goat Anti-Rabbit IgG H&L (HRP) working solution and Goat Anti-Mouse IgG H&L (HRP) working solution at room temperature. After 1 hour of incubation, the antibody working solution was discarded and the membranes were washed three times with 1× concentration of TBST. According to the instructions of the kit SuperSignal™ West Femto Maximum Sensitivity Substrate, the reagents in the kit were mixed in equal volume proportions to prepare a luminescent liquid mixture. The membranes were incubated for 1 minute, then removed for exposure.
The results of Western blotting 24 hours after administration of the compounds with a concentration of 1 μM were shown in Table 3: […]

IC50 (kinase IRAK4; Table 2, substrate FAM-P8 3 μM)	DC50 [1]	IC50 (kinase IRAK4; Table 1, class symbols)	IRAK4 degradation rate 24 hours after administration of the compounds with a concentration of 1 μM [1]	Structure (SMILES)
31.4 nM	7.62 nM	–	–	COc1cc2nn(C3CC4(CCN(C(=O)C5CCN(c6cc7c(cc6F)C(=O)N([C@H]6CCC(=O)NC6=O)C7=O)CC5)CC4)C3)cc2cc1NC(=O)c1cccc(C(F)(F)F)n1 [Compound I-61]
19 nM	3.26 nM	–	–	COc1cc2nn(C3CC4(CCN(C(=O)C5CCN(c6cc7c(cc6F)C(=O)N([C@@H]6CCC(=O)NC6=O)C7=O)CC5)CC4)C3)cc2cc1NC(=O)c1cccc(C(F)(F)F)n1 [Compound I-62]
32.1 nM	2.41 nM	–	–	CC(C)(O)c1cc2nn(C3CC4(CCN(C(=O)C5CCN(c6ccc7c(c6)C(=O)N([C@H]6CCC(=O)NC6=O)C7=O)CC5)CC4)C3)cc2cc1NC(=O)c1cccc(C(F)(F)F)n1 [Compound I-63]
22.7 nM	2.32 nM	–	–	Cc1cccc(C(=O)Nc2cc3cn(C4CC5(CCN(C(=O)C6CCN(c7ccc8c(c7)C(=O)N([C@@H]7CCC(=O)NC7=O)C8=O)CC6)CC5)C4)nc3cc2C(C)(C)O)n1 [Compound I-64]
34 nM	32.8 nM	–	–	O=C1CCC(N2C(=O)c3ccc(N4CCN(C(=O)CN5CCC(n6cc7cc(NC(=O)c8cccc(C(F)(F)F)n8)c(OC(F)(F)F)cc7n6)CC5)CC4)cc3C2=O)C(=O)N1 (centres unmarked) [II-2]
20 nM	12.4 nM	< 100 nM	50~75%	COc1cc2nn(C3CCN(C(=O)CN4CCN(c5ccc6c(c5)C(=O)N(C5CCC(=O)NC5=O)C6=O)CC4)CC3)cc2cc1NC(=O)c1cccc(C(F)(F)F)n1 (centres unmarked) [II-4]
11 nM	6.15 nM	< 100 nM	75~100%	COc1cc2nn(C3CCN(CC(=O)N4CCN(c5cc6c(cc5F)C(=O)N(C5CCC(=O)NC5=O)C6=O)CC4)CC3)cc2cc1NC(=O)c1cccc(C(F)(F)F)n1 (centres unmarked) [II-5]
8.2 nM	9.99 nM	< 100 nM	75~100%	CC(C)(O)c1cc2nn(C3CCN(CC(=O)N4CCN(c5ccc6c(c5)C(=O)N(C5CCC(=O)NC5=O)C6=O)CC4)CC3)cc2cc1NC(=O)c1cccc(C(F)(F)F)n1 (centres unmarked) [II-6]
3.57 nM	2.2 nM	–	–	COc1cc2nn(C3CCN(CC(=O)N4CCN(c5ccc6c(c5)CN(C5CCC(=O)NC5=O)C6=O)CC4)CC3)cc2cc1NC(=O)c1cccc(C(F)(F)F)n1 (centres unmarked) [II-7]
7.45 nM	5.98 nM	< 100 nM	–	COc1cc2nn(C3CCN(C(C)C(=O)N4CCN(c5ccc6c(c5)C(=O)N(C5CCC(=O)NC5=O)C6=O)CC4)CC3)cc2cc1NC(=O)c1cccc(C(F)(F)F)n1 (centres unmarked) [II-10]
14.2 nM	20.5 nM	< 100 nM	–	COc1cc2nn(C3CCN(C4CC5(CCN(c6ccc7c(c6)C(=O)N(C6CCC(=O)NC6=O)C7=O)CC5)C4)CC3)cc2cc1NC(=O)c1cccc(C(F)(F)F)n1 (centres unmarked) [II-12]
14 nM	32.9 nM	< 100 nM	<25%	COc1cc2nn(C3CCN(C(=O)C4CCN(Cc5ccc6c(c5)C(=O)N(C5CCC(=O)NC5=O)C6=O)CC4)CC3)cc2cc1NC(=O)c1cccc(C(F)(F)F)n1 (centres unmarked) [II-16]
11 nM	> 1000 nM	< 100 nM	<25%	COc1cc2nn(C3CCN(C4CCN(C(=O)c5ccc6c(c5)C(=O)N(C5CCC(=O)NC5=O)C6=O)CC4)CC3)cc2cc1NC(=O)c1cccc(C(F)(F)F)n1 (centres unmarked) [II-17]
5.5 nM	14.1 nM	–	–	COc1cc2nn(C3CCN(CC(=O)N4CCN(c5cccc6c5C(=O)N(C5CCC(=O)NC5=O)C6=O)CC4)CC3)cc2cc1NC(=O)c1cccc(C(F)(F)F)n1 (centres unmarked) [II-20]

Structure (SMILES)	IC50 (kinase IRAK4; Table 2, substrate FAM-P8 3 μM)	DC50 [1]	IC50 (kinase IRAK4; Table 1, class symbols)	IRAK4 degradation rate 24 hours after administration of the compounds with a concentration of 1 μM [1]
COc1cc2nn(C3CC4(CCN(C(=O)C5CCN(c6ccc7c(c6)C(=O)N([C@H]6CCC(=O)NC6=O)C7=O)CC5)CC4)C3)cc2cc1NC(=O)c1cccc(C(F)(F)F)n1 [Compound I-65]	26.3 nM	3.71 nM	–	–
COc1cc2nn(C3CC4(CCN(C(=O)C5CCN(c6ccc7c(c6)C(=O)N([C@@H]6CCC(=O)NC6=O)C7=O)CC5)CC4)C3)cc2cc1NC(=O)c1cccc(C(F)(F)F)n1 [Compound I-66]	25.3 nM	3.14 nM	–	–
COc1cc2nn(C3CC4CCC(C3)N4CC(=O)N3CCN(c4ccc5c(c4)C(=O)N(C4CCC(=O)NC4=O)C5=O)CC3)cc2cc1NC(=O)c1cccc(C(F)(F)F)n1 (centres unmarked) [II-13]	10.5 nM	478 nM	< 100 nM	–
